Laboratory results reported in the pKa sets of Baltruschat and Czodrowski (2020).

| Compound | pKa (acidic group) | pKa (basic group) |
| --- | --- | --- |
| Nc1c[nH+]c(S)nc1N | 2.96 |  |
| Sc1cccc2ncccc12 | 6.48 |  |
| CC(CC[NH+](C)C)NN (centres undefined) |  | 5.9 |
| NCCc1c[nH]c2ccccc12 |  | 10.2 |
| CCCCNc1cc[nH+]c([O-])n1 |  | 4.69 |
| C#CCNCC#C |  | 6.08 |
| Oc1cccc2c1-c1c(O)cccc1-2 | 8.16 |  |
| c1cnc2c(c1)CCCC2 |  | 6.6 |
| COc1cc(C[NH+](C)C)c(O)c(C[NH+](C)C)c1 | 6.33 |  |
| NC1=[NH+][C@@H](CC(=O)[O-])C(=O)N1CCCC(N)C(=O)[O-] (some centres undefined) |  | 8.1 |
| Cc1cnc2c(c1)c(C)c(C)c1cc(C)cnc12 |  | 5.54 |
| CC1=NCCS1 |  | 5.29 |
| CCCCO | 15.6 |  |
| O=S1(=O)OC(c2cc(Br)c(O)c(Br)c2)(c2cc(Br)c(O)c(Br)c2)c2ccccc21 | 4.2 |  |
| CN1C[C@H](C(=O)[O-])C[C@@]2(O)c3cccc4[nH]cc(c34)C[C@@H]12 |  | 8.33 |
| O=C1c2ncnc([O-])c2C(=O)c2nc[nH]c21 |  | 5.99 |
| CN(C)Cc1cc(OCc2ccccc2)ccc1O | 11.5 |  |
| Oc1cc[nH+]c2cccnc12 | 2.85 |  |
| C(=C/c1nnnn1-c1ccccc1)/c1ccccc1 |  | -2.81 |
| Cc1cc(C(=O)O)ccc1Br | 4.03 |  |
| Cc1nc([O-])n[nH]1 |  | 9.43 |
| N#CC(C#N)C(C#N)C#N | 3.6 |  |
| Nc1ccc(S(=O)(=O)Nc2nccs2)c(Cl)c1 | 6.95 |  |
| NC(=N\O)/C(N)=N/O | 11.3 | 2.97 |

| Compound | pKa (acidic group) | pKa (basic group) |
| --- | --- | --- |
| CCCOc1ccc(C(=O)O)cc1 | 4.63 |  |
| O=C(O)c1cc2cc(Cn3cc[nH+]c3)ccc2s1 | 2.74 |  |
| CCOC(=O)CCN |  | 9.13 |
| CCCCCCCCCCCCNCCCCCCCCCCCC |  | 11 |
| CCCNC(=O)[C@H](Cc1c[nH]cn1)NC(=O)c1cccc(CNCCN)n1 |  | 9.3 |
| O=[N+]([O-])c1cccc(/C=C/C=N/O)c1 | 10.2 |  |
| CCc1nc2cc3ccccc3cc2[nH]1 | 12.9 | 6.14 |
| Cc1ccc(C2CN2)cc1 (centres undefined) |  | 6.76 |
| CCN(CC)C(=S)NC(=O)c1ccccc1 | 8.45 |  |
| C[C@@H]1N[C@H](CCCCCCCC(=O)[O-])CC[C@@H]1O |  | 10.4 |
| S=CNCc1ccccc1 | 12.3 |  |
| Nc1ccccc1NC(=O)c1ccc([N+](=O)[O-])cc1 |  | 3.01 |
| Nc1ncc2[nH]c(-c3ccccc3)nc2n1 | 9.2 | 3.98 |
| CN(C)Cc1ccc(C[NH+](C)C)c(O)c1O |  | 6.39 |
| CCOC(=O)C1(CCC(=O)O)CCC(=O)NC1=O (centres undefined) | 4.35 |  |
| CCc1cnnc(C)c1 |  | 4.17 |
| O=C(O)C1(O)CCCC1 | 4.11 |  |
| COc1ccc2c(c1OC(C)=O)[C@]13CCN(C)[C@H](C2)[C@@H]1CC[C@H](OC)C3 |  | 9.31 |
| C1CCC(C2=NCCC2)CC1 |  | 6.05 |
| O=C(O)C(=O)c1ccccc1 | 1.22 |  |
| C[Si](C)(C)O[Si](C)(C)CCCC(=O)O | 5.03 |  |
| N#Cc1ccccc1O | 7.32 |  |
| COc1ccc(I)cc1C(=O)N[C@@H]1C[C@H]2CC[C@@H](C1)N2Cc1ccccc1 |  | 8.79 |
| CCCOc1ccc(O)cc1 | 10.2 |  |

| Compound | pKa (acidic group) | pKa (basic group) |
| --- | --- | --- |
| CS(=O)Cc1ccccn1 (centres undefined) |  | 3.1 |
| CN1CCCC1c1ccccc1 (centres undefined) |  | 8.8 |
| CC1CCNCC1 |  | 10.9 |
| O=C1CCCC1=O | 9.14 |  |
| CC(C)(C)[C@]1(O)CCN2C[C@@H](c3ccccc3)c3ccccc3[C@@H]2C1 |  | 7.03 |
| O=[N+]([O-])c1ccc(O)c(C[NH+]2CCOCCOCCOCCOCC2)c1 | 5.79 |  |
| CCCCc1cccnn1 |  | 3.49 |
| O=[N+]([O-])c1cnc([O-])[nH+]c1[O-] |  | 5.42 |
| Oc1cc(Br)cc(Br)c1 | 8.01 |  |
| O=C(O)Cc1ccoc1 | 4.07 |  |
| CC(C)N1C2CCCC21 (centres undefined) |  | 8.31 |
| Cc1ccccc1C(=N)c1ccccc1 |  | 7.21 |
| C[NH+](C)Cc1cccc(NC(=O)/C=N/O)c1 | 8.28 |  |
| CCN(CC)C(=S)NC(=O)c1ccc(F)cc1 | 8.13 |  |
| O=C([O-])C[NH+](CCNS(=O)(=O)c1ccccc1)CC(=O)[O-] | 7.82 |  |
| O=C(O)/C=C\C(=O)NOCc1ccccc1 | 3.8 |  |
| N[C@H]1CCc2ccccc21 |  | 9.21 |
| COc1cccc(CN)c1OC |  | 9.41 |
| O=C(O)C#Cc1ccccc1 | 2.26 |  |
| COc1cc(CO)ccc1O | 9.79 |  |
| O=C(O)CCCc1cccs1 | 4.54 |  |
| Oc1cccc(C2NCCS2)c1 (centres undefined) |  | 5.2 |
| CCc1nc(C)c[nH]1 |  | 8.5 |
| CC(C)NCC(O)c1cccc(F)c1 (centres undefined) |  | 9.48 |

| Compound | pKa (acidic group) | pKa (basic group) |
| --- | --- | --- |
| CC(=O)OCC1CN2CCC1CC2 (centres undefined) |  | 10.3 |
| Cc1cc(C)c(O)cc1C | 10.6 |  |
| Cc1nc(C(=O)[O-])ccc1O | 9.49 | 5.13 |
| CNCC(=O)Nc1c(C)cccc1C |  | 7.99 |
| CN1CCCN(C)c2cccc3cccc1c23 |  | 10.3 |
| O=CC1CCCC1=O (centres undefined) | 5.83 |  |
| Cn1c(=O)c2c(ncn2CC(=O)[O-])n(C)c1=O |  | 4.48 |
| Cc1nc(NS(=O)(=O)c2ccc(N)cc2)sc1C | 6.97 |  |
| COc1ccc(CN2CC(O[Si](C)(C)C)C2)cc1 |  | 8.17 |
| C[C@H](N)CCC(=O)[O-] |  | 10.4 |
| [O-]/C(=C/c1ccncc1)c1ccccc1 |  | 7.05 |
| Cc1cc[n+](O)cc1 | 1.29 |  |
| NNC(=O)[C@H](Cc1c[nH]cn1)NC(=O)OCc1ccccc1 |  | 6.1 |
| CC[NH+](C)CCOCCN(C)C |  | 7.96 |
| c1nc(Cc2c[nH]c(Cc3nc(Cc4cnc[nH]4)c[nH]3)n2)c[nH]1 |  | 7.49 |
| O=C([O-])/C=C/c1c[nH]cn1 |  | 5.85 |
| CNCc1ccccn1 |  | 8.96 |
| O=[N+]([O-])c1cccc(Nc2ccccc2)c1 |  | -1.27 |
| N#C/C(=C(\[O-])O)c1ccccc1 | 8.7 |  |
| Cc1cc(C)c(C)c(O)c1 | 10.6 |  |
| CCNc1nc(NCC)nc(NCC)n1 |  | 5.84 |
| Oc1cc(-c2ccccc2)nn1-c1ccccc1 | 12.2 |  |
| OCCCCCc1ccncc1 |  | 6.04 |
| CCN1[C@H](C)[C@@H]1C (some centres undefined) |  | 8.57 |

| Compound | pKa (acidic group) | pKa (basic group) |
| --- | --- | --- |
| CC(C)N(CCc1ccccc1)CCc1ccccc1 |  | 10 |
| CN(C)c1ccc(/C=N/c2ncc3[nH+]c[nH]c3n2)cc1 |  | 3.82 |
| NCc1ccc(C(=O)[O-])cc1 |  | 9.64 |
| CC(CN1CCCC(C)(C)C1)Nc1ccccn1 (centres undefined) |  | 9.23 |
| Nc1ccc(Cl)c2ccccc12 |  | 3.4 |
| O=[N+]([O-])c1ccc[nH]1 | 10.6 |  |
| C[S+](C)c1ccc(O)cc1 | 7.31 |  |
| Nc1ccc(-c2ncc(-c3ccccc3)o2)cc1 |  | 3.01 |
| CCCCCCCCCCCCCCN(CC(C)O)CC(O)CC (centres undefined) |  | 6.1 |
| Cc1n[nH]c(C)c1[N+](=O)[O-] | 10.3 | -0.22 |
| Cc1ccc2c(c1)NCC[NH2+]2 |  | 2.03 |
| O=C(O)[C@@H]1C[C@@H]1c1ccccc1 | 4.82 |  |
| C/N=C(/NC)N(C)C |  | 13.9 |
| [S-]c1nccc2ccccc12 |  | 10.8 |
| O=[N+]([O-])c1cccc(-c2ccc(O)cc2)c1 | 9.14 |  |
| CCC(N)CO (centres undefined) |  | 9.53 |
| CC(C)CNCC(C)C |  | 10.6 |
| CN(C1=NCCCO1)c1ccccc1 |  | 10.7 |
| Cc1ccc(N)cc1[N+](=O)[O-] |  | 3 |
| CC[NH+](CC)Cc1cc(F)ccc1O | 8.23 |  |
| CCNC(O)=S | 0.92 |  |
| NC(=O)CNCCCNCC(N)=O | 7.27 |  |
| O=[N+]([O-])c1cc(Cl)ccc1[Se]O | 10.2 |  |
| Cc1ccc([N+](=O)[O-])c2c(NCCC[NH+](C)C)c3ccccc3nc12 |  | 6.29 |

| Compound | pKa (acidic group) | pKa (basic group) |
| --- | --- | --- |
| CCCC[NH2+]CCC(=O)O | 3.57 |  |
| O=C(O)CCCc1c[nH]c2ccccc12 | 4.82 |  |
| c1ccc2c3c([nH]c2c1)CNCC3 |  | 8.4 |
| Cc1ccccc1C(=NCCC[NH+](C)C)c1ccccc1C |  | 4.3 |
| Nc1nccc2c1[nH+]cn2CCOCP(=O)([O-])O | 6.56 |  |
| Cc1ccc(I)c(C(=O)O)c1 | 2.95 |  |
| CCOC(=O)[C@H]1CC(=O)N[C@@H]1C(=O)O | 3.5 |  |
| CC(C)c1cccc(=O)c(O)c1 | 7.22 |  |
| Cc1nc2nc([O-])[nH]c(=O)c2[nH]1 | 9.7 |  |
| Cc1cc(C)c(CN)cc1N |  | 9.77 |
| CCCC(C)C1C(=O)NC(=S)N=C1[O-] (centres undefined) | 11.4 |  |
| CC(C)=CCC1C(=O)C(C(=O)CC(C)C)C(=O)C(CC=C(C)C)(CC=C(C)C)C1=O (centres undefined) | 6.18 |  |
| CSC(=S)N(C)CC(=O)O | 2.98 |  |
| Clc1cn[nH]c1 |  | 1.24 |
| O=Cc1ccncc1O | 6.77 | 4.05 |
| O=C1CCC(O)=C1O | 4.8 |  |
| O=C(O)C(CO)c1ccccc1 (centres undefined) | 4.23 |  |
| CCCC[NH2+]CCN |  | 7.53 |
| CCC(=O)c1cc(C(=O)c2ccccc2)n[nH]1 | 9.14 |  |
| C=CCC1(C2C=CCCC2)C(=O)NC(=S)NC1=O (centres undefined) | 7.25 |  |
| NS(=O)(=O)c1ccc(F)cc1 | 9.34 |  |
| O=C(O)/C=C/c1ccco1 | 4.29 |  |
| CCCCN |  | 10.7 |
| O=C(Cc1ccccc1)c1cc[n+](Cc2ccc([N+](=O)[O-])cc2)cc1 | 8.68 |  |

| Compound | pKa (acidic group) | pKa (basic group) |
| --- | --- | --- |
| OC[C@@H]1O[C@@H]2NC(=S)O[C@@H]2[C@H]1O | 9.48 |  |
| Cc1cccc(SCC(=O)O)c1 | 3.52 |  |
| CC[NH+](CC)Cc1cc(Br)ccc1O | 7.7 |  |
| CN(C)N(C)C |  | 6.19 |
| CCO[C@H]1C[C@@H]1C(=O)O | 4.46 |  |
| CN(C)C |  | 9.96 |
| COc1ccc(N(C)CO)cc1 |  | 4.59 |
| [NH3+]C(c1cccc(O)c1O)P(=O)([O-])[O-] (centres undefined) | 9.44 |  |
| CC(=O)N1CCN(C)CC1 |  | 7.1 |
| OCCCl | 14.4 |  |
| Cc1nnc(S)n1N | 7.97 |  |
| COC(=O)CCCc1c[nH]cn1 |  | 7.33 |
| CC1=CC(=C2C=CC=CC=C2)C=C(C)C1=O |  | 6.26 |
| Cc1ccc(C(=O)NS(=O)(=O)c2ccc(N)cc2)cc1C | 4.66 |  |
| [O-]c1c(Cl)cc(Cl)cc1CN1CCOCC1 |  | 8.85 |
| [NH3+][C@H]1CC(=O)NC1=O | 5.9 |  |
| Oc1ccc(-c2nnn[nH]2)cc1 | 4.28 |  |
| Nc1ccncc1C(=O)[O-] |  | 9.1 |
| Cc1cc(C)n(Cc2cc(C)n(C)n2)[nH+]1 |  | 0.6 |
| N#CCN1CCOCC1 |  | 2 |
| Cc1cccc(C(=O)O)c1[N+](=O)[O-] | 2.91 |  |
| c1ccc(CCNc2ncnc3[nH]ncc23)cc1 | 4.38 |  |
| CC(C)CCCC(C)N (centres undefined) |  | 10.3 |
| Nc1c[nH]nc1[N+](=O)[O-] | 9.5 |  |
